Measured values reported in patent US11591300B2, “Oxazole containing compounds as activators of IDO1 and AhR” (The Brigham and Women's Hospital, Inc., priority 2017, dated 2023).
“Also recorded” adds a separate entry of the source.

Experiments:
primary hepatocytes = assay: IL-10 production from primary hepatocytes co-cultured with 24.7 iNKT hybridoma; conditions: response to iNKT cells in the presence of α-GC
[1] = biological target: T1, aryl hydrocarbon receptor (AhR) (Mus musculus, UniProt P30561); assay: AhR firefly luciferase reporter in IECs; type: cell-based; conditions: compared to vehicle or 1,2,4-trimethylcyclopentane
T1 construct: IECs were transfected with an AhR firefly luciferase reporter; endogenous in cells; host or cells: MODE-K (mouse intestinal epithelial cell line)
T1 sequence (P30561 10-848): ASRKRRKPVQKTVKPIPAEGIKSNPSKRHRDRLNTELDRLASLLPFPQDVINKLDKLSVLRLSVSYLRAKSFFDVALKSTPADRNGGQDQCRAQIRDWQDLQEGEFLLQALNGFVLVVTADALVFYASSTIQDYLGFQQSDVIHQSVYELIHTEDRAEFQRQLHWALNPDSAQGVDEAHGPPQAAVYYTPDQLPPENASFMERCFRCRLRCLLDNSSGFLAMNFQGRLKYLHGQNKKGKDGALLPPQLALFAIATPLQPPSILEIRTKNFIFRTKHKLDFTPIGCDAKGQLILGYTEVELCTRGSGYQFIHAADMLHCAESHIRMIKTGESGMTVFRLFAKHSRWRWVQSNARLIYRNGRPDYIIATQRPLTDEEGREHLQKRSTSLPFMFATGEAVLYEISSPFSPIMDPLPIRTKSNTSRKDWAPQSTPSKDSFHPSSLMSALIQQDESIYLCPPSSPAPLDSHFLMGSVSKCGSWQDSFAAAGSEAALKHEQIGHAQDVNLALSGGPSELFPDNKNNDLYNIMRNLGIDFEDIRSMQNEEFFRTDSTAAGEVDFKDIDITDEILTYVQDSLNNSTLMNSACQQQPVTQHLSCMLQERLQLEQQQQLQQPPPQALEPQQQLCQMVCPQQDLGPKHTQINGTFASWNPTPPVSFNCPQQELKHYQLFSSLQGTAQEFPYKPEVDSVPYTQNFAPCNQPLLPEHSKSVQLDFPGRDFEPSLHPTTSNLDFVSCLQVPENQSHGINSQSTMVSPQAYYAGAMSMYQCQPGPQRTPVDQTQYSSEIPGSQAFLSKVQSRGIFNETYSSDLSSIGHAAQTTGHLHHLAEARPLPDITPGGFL

C57Bl/6 mice [2] = conditions: germ free animals; Olszak et al. 2012; cited from earlier work
MODE-K cells [3] = assay: CD1d-restricted IL-10 production in MODE-K:NKT cell hybridoma co-culture; type: cell-based, mouse; conditions: for epithelial derived IL-10: no exogenous α-GC
MODE-K cells [4] = assay: Surface and intracellular CD1d protein expression in MODE-K cells (flow cytometry); type: cell-based, mouse; conditions: IECs stimulated with compound
Description: (§1) In light of the decreased MTP expression observed in oxazolone treated IECs (FIG. 1B) and given that MTP loss alters the ability of CD1d to acquire exogenous antigens, such as α-GC, and CD1d elicited IL-10 responses by epithelial cells (Dougan et al. 2005, Dougan et al. 2007, Zeissig et al 2017, Sagiv et al. 2007, Brozovic et al. 2004, Olszak et al. 2014), it was investigated whether CD1d expression and lipid loading on oxazolone conditioned IECs.

[5] = tested on: epithelial enriched colon fractions; conditions: after intra-rectal oxazolone challenge; Olszak et al. 2014; cited from earlier work
C57Bl/6 mice [6] = assay: Intra-rectal administration, colonic inflammation in vivo; set-up: species or system mouse
Experimental: It was tested whether a dietary sourced minimal oxazole structure was sufficient to induce intestinal inflammation in vivo. […] To confirm this, the ability of oxazolone skin pre-sensitization to affect the responses to rectal challenge with TMO and vice-versa (FIG. 9D).
Next, it was tested whether B17 microcin derivatives could induce intestinal inflammation in vivo. Therefore, adequate quantities of a minimal B17 derivative (termed frag-oz, FIG. 2D) were synthesized to perform in vivo experiments and challenged animals via intra-rectal administration. […] These studies identify an oxazole containing microbial mimic that promotes CD1d-dependent intestinal inflammation independent of its classical anti-microbial activity.
These studies reveal a novel role for epithelial derived AhR signals in promoting mucosal inflammation when exposed to OxC.

MODE-K cells [7] = assay: Surface CD1d loaded with α-GC (L363 antibody staining) in MODE-K cells; type: cell-based, mouse
Description: as §1

[8] = tested on: bone marrow-derived dendritic cells; assay: IFN-γ production in bone marrow-derived dendritic cell : 24.7 iNKT hybridoma co-culture; type: cell-based; conditions: bone marrow-derived dendritic cells with 24.7 iNKT hybridoma and α-GC
MODE-K cells [9] = assay: Relative transcript abundance of target genes in MODE-K cells conditioned with compounds; conditions: MODE-K cells conditioned with compound, normalized to β-actin
Description: 4-ethoxymethylene-2-phenyl-2-oxazol-5-one, (referred to as oxazolone, FIG. 1A) has been widely utilized in models of contact hypersensitivity and when applied to the mucosa has been proposed to cause colitis through its properties as a hapten (Gorbachev and Fairchild 2001). However to date there is limited evidence for hapten-specific antibody production or responses following topical oxazolone sensitization or hapten modified autologous proteins or luminal antigens identified at mucosal sites (Singleton et al. 2016, Yanaba et al. 2008, Wirtz et al. 2007). […] It was then determined whether oxazolone could affect the expression of these transcripts in the intestinal epithelium in a cell intrinsic manner by directly stimulating an immortalized intestinal epithelial cell line (IEC) derived from mouse small intestine, MODE-K, with oxazolone.
To test this, a systematic in vitro system was devised to assess transcriptional and CD1d-restricted responses in IECs in response to stimulation with dietary OxC structures, including 2,4,5-trimethyl-2,5-dihydro-1,3-oxazole (referred to as TMO, FIG. 1A) found in coffee, peanuts, meats and utilized as a food additive, which lacks the 2-phenyl ring, 5-ketone, and 4-ethoxymethylene present in oxazolone (Vitzthum et al. 1975, Stoffesima et al. 1968, Lee et al. 1981, Chang et al. 1968, Ho and Hartman 1968).

recombinant IDO1 = recombinant IDO1 (Homo sapiens, UniProt P14902); assay: Recombinant IDO1 conversion of L-tryptophan to formyl-kyneurenine; type: biochemical; conditions: compared to control (TMC) or vehicle
Chain of recombinant IDO1 (P14902 whole entry, species assumed): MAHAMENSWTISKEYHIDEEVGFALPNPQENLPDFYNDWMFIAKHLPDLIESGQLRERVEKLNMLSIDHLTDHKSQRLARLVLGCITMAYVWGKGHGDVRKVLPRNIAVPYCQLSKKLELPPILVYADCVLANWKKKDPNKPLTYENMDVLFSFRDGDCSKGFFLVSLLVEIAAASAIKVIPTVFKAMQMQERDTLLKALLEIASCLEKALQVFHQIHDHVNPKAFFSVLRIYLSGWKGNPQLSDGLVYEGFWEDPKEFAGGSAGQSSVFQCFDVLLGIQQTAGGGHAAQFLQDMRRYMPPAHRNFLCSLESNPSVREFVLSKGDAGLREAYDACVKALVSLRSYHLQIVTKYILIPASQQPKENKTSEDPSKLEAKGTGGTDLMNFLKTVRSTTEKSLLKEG

IECs = assay: LC-MS of deuterated L-trp (D5-Trp) metabolites in IEC lysates; type: cell-based; conditions: within 6 hours of exposure
Experimental: IDO1 is a rate-limiting enzyme involved in tryptophan catabolism that generates formyl-kyneurenine which can be further metabolized into a variety of AhR agonists (Higuchi and Hayaishi Arch Biochem Biophys 1967, Nguyen and Bradfield 2008, Zelante et al. 2014). […] To specifically identify these tryptophan derived products, IECs were cultured with deuterated L-trp (D5-Trp) and performed high performance liquid chromatography mass spectrometry (LC-MS) on lysates stimulated with oxazolone, TMO, frag-oz or TMC control (FIG. 5C). […] Taken together these latter studies are consistent with a model in which exposure of IECs to oxazole containing compounds leads to the activation of IDO1 and generation of tryptophan-derived metabolites that induce the AhR pathway to downregulate CD1d-restricted responses associated with the production of IL-10 (FIG. 6).

[10] = AhrΔIEC relative to Ahrfl/fl mice, intra-rectal challenge

For `CCO/C=C1\N=C(c2ccccc2)OC1=O` [oxazolone, 4-ethoxymethylene-2-phenyl-2-oxazolin-5-one], the “compound induced inhibition of IL-10 production in hepatocytes from Ahr−/− mice” value (primary hepatocytes) is listed as “resistance”, the AhR transcriptional activity [1] is listed as “induced robust AhR transcriptional activity” and the “inflammation in animals under GF conditions” value (C57Bl/6 mice [2]) is listed as “induce inflammation”. The “compound induced inhibition of CD1d-restricted IL-10 production when AhR expression is silenced” value (MODE-K cells [3]; AhR siRNA, IEC:iNKT cell co-cultures) was “reversed”, the “CD1d-restricted IL-10 production” value (MODE-K cells [3]; IECs cultured in tryptophan-deficient media) was “no longer attenuated” and the “CD1d-restricted IL-10 production” value (MODE-K cells [3]; MODE-K pre-conditioned with compound, loaded with α-GC, co-culture with 24.7 iNKT hybridoma) was “attenuated IL-10 production; also recorded: limited”. For the same compound, the “epithelial derived IL-10” value (MODE-K cells [3]; co-culture with autoreactive iNKT cell hybridoma (24.8)) was “suppressed”, the “epithelial derived IL-10” value (MODE-K cells [3]; co-culture with autoreactive non-invariant dNKT cell hybridoma (14S.6)) was “suppressed” and the IL-10 production (MODE-K cells [3]; tryptophan-deficient conditions supplemented with kyneurenic acid) was “decreased IL-10 production”. The “decrease of IL-10 production when AhR was silenced” value (MODE-K cells [3]; tryptophan-deficient conditions supplemented with kyneurenic acid, AhR siRNA) was “reduced when AhR was silenced”, the “CD1d-restricted IL-10 production” value (MODE-K cells [3]; tryptophan-deficient media supplemented with exogenous L-tryptophan) was “attenuation of CD1d-restricted IL-10 production” and the “CD1d protein expression or distribution between intracellular and cell surface pools” value (MODE-K cells [4]) was “did not display altered CD1d protein expression or distribution”. For the same compound, the Ido1 transcripts [5] was “increased transcripts”, the Mttp transcripts [5] was “decreased transcripts” and the cyp1a1 transcripts [5] was “increased transcripts”. For the same compound, the “IL-10 production in colonic explants” value (C57Bl/6 mice [6]; AhrΔIEC compared to wildtype controls, after intra-rectal challenge) was “elevated IL-10 production”, the “host protection, disease manifestations” value (C57Bl/6 mice [6]; [10]) was “conferred host protection” and the weight loss (C57Bl/6 mice [6]; [10]) was “diminished weight loss”. The “effect of skin pre-sensitization with the other compound (oxazolone or TMO) on rectal responses” value (C57Bl/6 mice [6]; topical sensitization followed by intra-rectal challenge) was “did not affect”, the “compound induced reduction of cell surface CD1d lipid antigen loading when AhR expression is silenced” value (MODE-K cells [7]; AhR siRNA) was “reversed” and the “loading of α-GC on CD1d at the cell surface (L363 staining)” value (MODE-K cells [7]; MODE-K cells conditioned with compound) was “decreased loading of α-GC on CD1d at the cell surface; also recorded: decreased cell surface staining”. For the same compound, the IFN-γ production [8] was “not affected”, the Ido1 transcripts (MODE-K cells [9]) was “induction; also recorded: induced expression of these genes in vitro and in vivo” and the Mttp transcripts (MODE-K cells [9]) was “down-regulation”. The “ability of IDO1 to convert tryptophan to formyl-kyneurenine” value (recombinant IDO1) was “enhanced” and the “metabolite that D5-Trp was further metabolized to upon stimulation” value (IECs) was “kyneurenic acid”.
